Measurements as given in ChEMBL document CHEMBL4411344, “Synthesis and biological evaluation of new long-chain squaramides as anti-chagasic agents in the BALB/c mouse model” (Bioorg Med Chem, 2019).
Calls of active or inactive are those of the source. The calls are words filed in the database; no cut-off is given here.

Legend:
Trypanosoma cruzi [1] = test: Trypanocidal activity against Trypanosoma cruzi MHOM/Pe/2011/Arequipa DTU 5 amastigotes infected in African green monkey Vero cells after 72 hrs by Giemsa-staining based microscopic assay; assay type: functional, organism-based; conditions: MHOM/Pe/2011/Arequipa DTU 5, Vero
[2] = Selectivity index, ratio of IC50 for African green monkey Vero cells to IC50 for Trypanosoma cruzi MHOM/Pe/2011/Arequipa DTU 5 trypomastigotes derived from infected Balb/c mouse; assay type: toxicity; conditions: read-out: Ratio IC50
[3] = Selectivity index, ratio of IC50 for African green monkey Vero cells to IC50 for Trypanosoma cruzi MHOM/Pe/2011/Arequipa DTU 5 epimastigotes; assay type: toxicity; conditions: read-out: Ratio IC50
[4] = (§1) Hepatotoxicity in Balb/c mouse infected with Trypanosoma cruzi MHOM/Pe/2011/Arequipa DTU 5 trypomastigotes assessed as change in ratio of serum AST to GOT level at 20 mg/kg, po once daily for 5 consecutive days starting from day 10 post infection measured on day 127 post infection by biochemical analysis (reference value: 179 U/L); assay type: toxicity, organism-based; conditions: in vivo
Vero = test: Cytotoxicity against African green monkey Vero cells assessed as reduction in cell viability after 72 hrs by resazurin dye based assay; conditions: Chlorocebus sabaeus
[5] = Selectivity index, ratio of IC50 for African green monkey Vero cells to IC50 for Trypanosoma cruzi IRHOD/CO/2008/SN3 DTU 1 trypomastigotes derived from infected Balb/c mouse; assay type: toxicity; conditions: read-out: Ratio IC50
Trypanosoma cruzi [6] = test: Antitrypanosomal activity against Trypanosoma cruzi MHOM/Pe/2011/Arequipa DTU 5 epimastigotes assessed as effect on parasite glycolytic pathway by measuring increase in D-lactate excretion at IC25 after 72 hrs by 1H NMR method; assay type: functional, organism-based
Trypanosoma cruzi [7] = test: Trypanocidal activity against Trypanosoma cruzi IRHOD/CO/2008/SN3 DTU 1 amastigotes infected in African green monkey Vero cells after 72 hrs by Giemsa-staining based microscopic assay; assay type: functional, organism-based; conditions: IRHOD/CO/2008/SN3 DTU 1, Vero
Trypanosoma cruzi [8] = test: Antitrypanosomal activity against Trypanosoma cruzi MHOM/Pe/2011/Arequipa DTU 5 trypomastigotes infected in Balb/c mouse assessed as reduction in parasitaemia level at 20 mg/kg, po once daily for 5 consecutive days starting from day 10 post infection measured on day 23 post infection by Neubauer chamber method relative to control; assay type: functional; design: scale not given: the % may be the effect or the level left
Trypanosoma cruzi [9] = test: Trypanocidal activity against Trypanosoma cruzi IRHOD/CO/2008/SN3 DTU 1 epimastigotes after 72 hrs by resazurin dye based assay; assay type: functional, organism-based; conditions: IRHOD/CO/2008/SN3 DTU 1, 72 h
[10] = Nephrotoxicity in Balb/c mouse infected with Trypanosoma cruzi MHOM/Pe/2011/Arequipa DTU 5 trypomastigotes assessed as decrease in serum uric acid level at 20 mg/kg, po once daily for 5 consecutive days starting from day 75 post infection measured on day 81 post infection relative to control; assay type: toxicity, organism-based; conditions: in vivo
Trypanosoma cruzi [11] = test: Trypanocidal activity against Trypanosoma cruzi TINF/CH/1956/Tulahuen DTU 6 trypomastigotes derived from infected Balb/c mouse after 72 hrs by resazurin dye based assay; assay type: functional, organism-based; conditions: TINF/CH/1956/Tulahuen DTU 6, 72 h
[12] = Selectivity index, ratio of IC50 for African green monkey Vero cells to IC50 for Trypanosoma cruzi MHOM/Pe/2011/Arequipa DTU 5 amastigotes infected in African green monkey Vero cells; assay type: toxicity; conditions: read-out: Ratio IC50
Trypanosoma cruzi [13] = test: Antitrypanosomal activity against Trypanosoma cruzi MHOM/Pe/2011/Arequipa DTU 5 epimastigotes assessed as effect on parasite glycolytic pathway by measuring increase in glycerol excretion at IC25 after 72 hrs by 1H NMR method; assay type: functional
Trypanosoma cruzi [14] = test: Trypanocidal activity against Trypanosoma cruzi MHOM/Pe/2011/Arequipa DTU 5 amastigotes infected in African green monkey Vero cells assessed as reduction in infected cells after 72 hrs by Giemsa-staining based assay; assay type: functional, organism-based; conditions: MHOM/Pe/2011/Arequipa DTU 5, Vero
Trypanosoma cruzi [15] = test: Trypanocidal activity against Trypanosoma cruzi TINF/CH/1956/Tulahuen DTU 6 epimastigotes after 72 hrs by resazurin dye based assay; assay type: functional, organism-based; conditions: TINF/CH/1956/Tulahuen DTU 6, 72 h
[16] = Selectivity index, ratio of IC50 for African green monkey Vero cells to IC50 for Trypanosoma cruzi TINF/CH/1956/Tulahuen DTU 6 amastigotes infected in African green monkey Vero cells; assay type: toxicity; conditions: read-out: Ratio IC50
Trypanosoma cruzi [17] = test: Antitrypanosomal activity against Trypanosoma cruzi MHOM/Pe/2011/Arequipa DTU 5 epimastigotes assessed as effect on parasite glycolytic pathway by measuring increase in acetate excretion at IC25 after 72 hrs by 1H NMR method; assay type: functional, organism-based
Trypanosoma cruzi [18] = test: Trypanocidal activity against Trypanosoma cruzi MHOM/Pe/2011/Arequipa DTU 5 trypomastigotes derived from infected Balb/c mouse after 72 hrs by resazurin dye based assay; assay type: functional, organism-based; conditions: MHOM/Pe/2011/Arequipa DTU 5, 72 h
[19] = Inhibition of Trypanosoma cruzi MHOM/Pe/2011/Arequipa DTU 5 epimastigotes Fe-SOD by UV-Visible spectrophotometric method
Trypanosoma cruzi [20] = test: Antitrypanosomal activity against Trypanosoma cruzi MHOM/Pe/2011/Arequipa DTU 5 epimastigotes assessed as effect on parasite glycolytic pathway by measuring decrease in acetate excretion at IC25 after 72 hrs by 1H NMR method; assay type: functional, organism-based
[21] = Nephrotoxicity in Balb/c mouse infected with Trypanosoma cruzi MHOM/Pe/2011/Arequipa DTU 5 trypomastigotes assessed as decrease in serum uric acid level at 20 mg/kg, po once daily for 5 consecutive days starting from day 10 post infection measured on day 127 post infection relative to control; assay type: toxicity, organism-based; conditions: in vivo
Trypanosoma cruzi [22] = test: Trypanocidal activity against Trypanosoma cruzi MHOM/Pe/2011/Arequipa DTU 5 amastigotes infected in African green monkey Vero cells assessed as reduction in infected cells at <= 12 uM after 72 hrs by Giemsa-staining based assay; assay type: functional, organism-based
[23] = as §1, with “increase” for “change”, “relative to control” for “(reference value: 179 U/L)”; assay type: toxicity, organism-based; conditions: in vivo
Trypanosoma cruzi [24] = test: Antitrypanosomal activity against Trypanosoma cruzi MHOM/Pe/2011/Arequipa DTU 5 epimastigotes assessed as effect on parasite glycolytic pathway by measuring decrease in pyruvate excretion at IC25 after 72 hrs by 1H NMR method; assay type: functional; design: scale not given: the % may be the effect or the level left
Trypanosoma cruzi [25] = test: Antitrypanosomal activity against Trypanosoma cruzi MHOM/Pe/2011/Arequipa DTU 5 epimastigotes assessed as effect on parasite glycolytic pathway by measuring decrease in D-lactate excretion at IC25 after 72 hrs by 1H NMR method; assay type: functional, organism-based
[26] = Nephrotoxicity in Balb/c mouse infected with Trypanosoma cruzi MHOM/Pe/2011/Arequipa DTU 5 trypomastigotes assessed as decrease in serum uric acid level at 20 mg/kg, po once daily for 5 consecutive days starting from day 75 post infection measured on day 127 post infection relative to control; assay type: toxicity, organism-based; conditions: in vivo
[27] = Hepatotoxicity in Balb/c mouse infected with Trypanosoma cruzi MHOM/Pe/2011/Arequipa DTU 5 trypomastigotes assessed as increase in total bilirubin level at 20 mg/kg, po once daily for 5 consecutive days starting from day 10 post infection measured on day 127 post infection by biochemical analysis relative to control; assay type: toxicity, organism-based; conditions: in vivo
[28] = Hepatotoxicity in Balb/c mouse infected with Trypanosoma cruzi MHOM/Pe/2011/Arequipa DTU 5 trypomastigotes assessed as increase in alkaline phosphatase level at 20 mg/kg, po once daily for 5 consecutive days starting from day 75 post infection measured on day 127 post infection relative to control; assay type: toxicity, organism-based; conditions: in vivo
[29] = Cardiotoxicity in Balb/c mouse infected with Trypanosoma cruzi MHOM/Pe/2011/Arequipa DTU 5 trypomastigotes assessed as decrease in serum LDH level at 20 mg/kg, po once daily for 5 consecutive days starting from day 75 post infection measured on day 127 post infection relative to control; assay type: toxicity, organism-based; conditions: in vivo
[30] = Cardiotoxicity in Balb/c mouse infected with Trypanosoma cruzi MHOM/Pe/2011/Arequipa DTU 5 trypomastigotes assessed as decrease in serum LDH level at 20 mg/kg, po once daily for 5 consecutive days starting from day 75 post infection measured on day 81 post infection relative to control; assay type: toxicity, organism-based; conditions: in vivo

Row | Compound | IC50 (Trypanosoma cruzi [1]) | selectivity ratio [2] | selectivity ratio [3] | IC50 (Vero) | selectivity ratio [5] | IC50 (Trypanosoma cruzi [7]) | Activity (Trypanosoma cruzi [8]) | IC50 (Trypanosoma cruzi [9]) | Activity [10] | IC50 (Trypanosoma cruzi [11]) | selectivity ratio [12] | Activity (Trypanosoma cruzi [13]) | IC50 (Trypanosoma cruzi [14]) | IC50 (Trypanosoma cruzi [15]) | selectivity ratio [16] | IC50 (Trypanosoma cruzi [18]) | IC50 [19] | Activity [23] | Activity [26] | also measured
1 | CCCCCCCCCCCCCCCCNc1c(N(C)CCCN(C)C)c(=O)c1=O | 0.2 µM | 154 | 93.1 | 679 µM | 126 | 18.9 µM | 80% | 16 µM | 20 to 30 mg/dL | 4.7 µM | 3090 | 43% | 5.6 µM | 9.5 µM | 106 | 4.4 µM | 69.8 µM |  |  | Activity [4]: 179 U/L; Activity (Trypanosoma cruzi [6]): Active; Activity (Trypanosoma cruzi [17]): Active
2 | CCCCCCNc1c(N(C)CCCN(C)C)c(=O)c1=O | 17.3 µM | 139 | 44.3 | 900 µM | 57 | 50 µM |  | 14.3 µM | 10 to 20 mg/dL | 17.2 µM | 52.1 | Active | 60.5 µM | 14.7 µM | 23.5 | 6.5 µM | 25.3 µM | 20 to 30 U/L | 10 to 20 mg/dL | Activity (Trypanosoma cruzi [20]): Active; Activity [21]: 10 to 20 mg/dL; Activity (Trypanosoma cruzi [22]): inactive; Activity (Trypanosoma cruzi [24]): 30%; Activity (Trypanosoma cruzi [25]): Active
3 | O=C(Cn1ccnc1[N+](=O)[O-])NCc1ccccc1 [BENZNIDAZOLE] |  |  |  |  |  |  | 70% |  |  |  |  |  |  |  |  |  |  | > 40 U/L | 10 to 20 mg/dL | Activity [27]: 10%; Activity [28]: 20 to 30 U/L; Activity [29]: 10 to 20 U/L; Activity [30]: 20 to 30 U/L
